Like-named read-outs stand apart in the source and are kept apart here.
Key:
[1] = test system: hiPSC-CMs (iCell-Cardiomyocytes^2)
Protocol: (§1) Cells were seeded according to the instructions of the cell provider, in fibronectin-coated 48-well MEA plates (Axion Cytoview Plates, M768-tMEA-48B) at a density suited to form a monolayer (i.e., 50 K/well) and maintained in culture in a stage incubator (37°C, 5% CO2).
(§2) At least 4 h before the beginning of the baseline measurements, a full medium exchange was performed (to a final volume of 400 µL per well). Neat compounds were dissolved in 100% DMSO at a stock concentration 1000-fold the highest target concentration. […] Afterwards, these stock solutions were diluted with Maintenance medium (CDi), to 10-fold the intended concentration. The final DMSO concentration in test solutions and vehicle control was 0.1%.
(§3) Spontaneous electrical activity was recorded in hiPSC-CMs monolayers as field potentials using the Maestro Pro MEA instrument (Axion Biosystems, Atlanta, GA, United States), which allows the maintenance of accurate temperature and CO2 levels (37°C, 5% CO2). After the plate was placed in the Maestro Pro and allowed to equilibrate for about 10 min, baseline acquisition of field potential and impedance signals was initiated and lasted for 5 min each. […] As impedance measures resistance of an applied alternating current through the hiPSC-CMs monolayer, a reduction in the attachment of hiPSC-CMs to the bottom of the well due to cell death or changes in the monolayer morphology, causes a drop in the impedance signal.
The potential presence of various arrhythmic events was evaluated and noted during the data analysis.
(§4) After the acquisition of all timepoint measurements, raw data were loaded into the data analysis software Axion Cardiac Analysis Tool (V.3.2.3). […] A.csv file containing information on the FP parameters per well, per time point, was then generated and used as input to the in-house data management system (SPEcII v.3.4, Unlimit-IT, Geel, Belgium), where descriptive statistics were calculated. Summary values at different time points after compound addition are expressed as percent change from baseline and shown as mean ± standard deviation (SD).
(§5) The nonparametric Wilcoxon-Mann Whitney Test was used to compare the percent change from the baseline (Δ%) value between the group treated with the compound at a given concentration and the group treated with the DMSO at each matching time points. A two-sided test at 5% significance level was considered. […] To assess the physiological relevance of changes, a tolerance interval of DMSO experiments was calculated at each time point, for each parameter. […] TIs indicate an interval where, with a certain confidence level (1- α = 0.95), a specified proportion (p = 0.80) of percent change for DMSO data falls. The lower and upper limits based on the TI values were used as cut-offs for the interpretation of the changes. For the cytotoxicity assays, measurements of fluorescence (after background fluorescence subtraction) from wells treated with the compounds were normalized by the average value of vehicle experiments (DMSO 0.1%) to obtain a DMSO-corrected, delta/delta percent change. Experiments from each condition, as delta/delta percent, were averaged and expressed as mean ± SD. Statistical analysis was performed using a non-parametric test (Kruskal-Wallis) and each treatment condition was compared to the relative DMSO 0.1%. Differences were considered statistically significant when the p-value was smaller than 0.05.

[2] = test system: hiPSC-CMs (iCell-Cardiomyocytes^2); assay: MEA impedance (cytotoxicity readout) in hiPSC-CMs
Protocol: as §1, §2, §3, §4, §5

## COc1cc2c(Nc3ccc(Br)cc3F)ncnc2cc1OCC1CCN(C)CC1 [Vandetanib]
[1]; 1 µM, 2h
  FPDc (field-potential duration corrected by beat-rate), % change from baseline: 110.2±0 %
  Flat T-wave-like, number of observations/total well numbers: 4/5
[1]; 1 µM, 24h
  BR (beating rate), % change from baseline: -59±5 %
  Beating below threshold, number of observations/total well numbers: 0/5
  Cessation of beating, number of observations/total well numbers: 0/5
  EAD, number of observations/total well numbers: 1/5
  Flat T-wave-like, number of observations/total well numbers: 5/5
[1]; 1 µM, 48h
  BR (beating rate), % change from baseline: -65±2 %
  Beating below threshold, number of observations/total well numbers: 0/5
  Cessation of beating, number of observations/total well numbers: 0/5
  EAD, number of observations/total well numbers: 2/5
  Flat T-wave-like, number of observations/total well numbers: 5/5
[1]; 1 µM, 72h
  BR (beating rate), % change from baseline: -68±2 %
  Beating below threshold, number of observations/total well numbers: 1/5
  Cessation of beating, number of observations/total well numbers: 1/5
  EAD, number of observations/total well numbers: 0/5
  Flat T-wave-like, number of observations/total well numbers: 3/5
[1]; 1 µM, 96h
  BR (beating rate), % change from baseline: -68±0 %
  Beating below threshold, number of observations/total well numbers: 0/5
  Cessation of beating, number of observations/total well numbers: 4/5
  EAD, number of observations/total well numbers: 0/5
  Flat T-wave-like, number of observations/total well numbers: 1/5
[1]; 3 µM
  time point from which cessation of beating occurred in all wells: 24 h
[1]; 3 µM, 72h
  Beating below threshold, number of observations/total well numbers: 0/5
  Cessation of beating, number of observations/total well numbers: 5/5
  EAD, number of observations/total well numbers: 0/5
  Flat T-wave-like, number of observations/total well numbers: 0/5
[1]; 3 µM, 96h
  Beating below threshold, number of observations/total well numbers: 0/5
  Cessation of beating, number of observations/total well numbers: 5/5
  EAD, number of observations/total well numbers: 0/5
  Flat T-wave-like, number of observations/total well numbers: 0/5
[1]; 3 µM, 2h
  BR (beating rate), % change from baseline: -58±4 %
  Beating below threshold, number of observations/total well numbers: 0/5
  Cessation of beating, number of observations/total well numbers: 0/5
  EAD, number of observations/total well numbers: 0/5
  EAD-like events: EAD-like events occurred
  Flat T-wave-like, number of observations/total well numbers: 5/5
[1]; 3 µM, 24h
  BR (beating rate), % change from baseline: -71±1 %
  Beating below threshold, number of observations/total well numbers: 0/5
  Cessation of beating, number of observations/total well numbers: 3/5
  EAD, number of observations/total well numbers: 0/5
  Flat T-wave-like, number of observations/total well numbers: 2/5
[1]; 3 µM, 48h
  Beating below threshold, number of observations/total well numbers: 1/5
  Cessation of beating, number of observations/total well numbers: 4/5
  EAD, number of observations/total well numbers: 0/5
  Flat T-wave-like, number of observations/total well numbers: 0/5
[2]; 0.1 µM, 2h
  Imp (impedance), % change from baseline: -3±2%
[2]; 0.1 µM, 24h
  Imp (impedance), % change from baseline: -9±2%
[2]; 0.1 µM, 48h
  Imp (impedance), % change from baseline: -7±2%
[2]; 0.1 µM, 72h
  Imp (impedance), % change from baseline: -9±3%
[2]; 0.1 µM, 96h
  Imp (impedance), % change from baseline: -6±3%
[2]; 0.3 µM, 2h
  Imp (impedance), % change from baseline: -2±1%
[2]; 0.3 µM, 24h
  Imp (impedance), % change from baseline: -9±4%
[2]; 0.3 µM, 48h
  Imp (impedance), % change from baseline: -3±3%
[2]; 0.3 µM, 72h
  Imp (impedance), % change from baseline: -5±4%
[2]; 0.3 µM, 96h
  Imp (impedance), % change from baseline: -6±5%
[2]; 1 µM, 2h
  Imp (impedance), % change from baseline: -3±2%
[2]; 1 µM, 24h
  Imp (impedance), % change from baseline: -11±3%
[2]; 1 µM, 48h
  Imp (impedance), % change from baseline: -13±4%
[2]; 1 µM, 72h
  Imp (impedance), % change from baseline: -20±4 %
[2]; 1 µM, 96h
  Imp (impedance), % change from baseline: -20±5%
[2]; 3 µM, 72h
  Imp (impedance), % change from baseline: -44±7 %
[2]; 3 µM, 96h
  Imp (impedance), % change from baseline: -53±5 %
[2]; 3 µM, 2h
  Imp (impedance), % change from baseline: 2±4%
[2]; 3 µM, 24h
  Imp (impedance), % change from baseline: -16±3%
[2]; 3 µM, 48h
  Imp (impedance), % change from baseline: -30±5 %
